Data on six compounds can be found in patent US20120264685A1 (priority 2009, published 2012).

Data set [1] is described as follows: Stability in simulated intestinal fluid. It counts as in vitro ADME. The following applies: 2 μM, 37° C.; for % degradation in 24 h when incubated with simulated intestinal fluid: pH 7.5, 24 h; for half-life: simulated gi fluid, read-out: half-life (t1/2) in simulated intestinal fluid; for half-life / half-life (t1/2) in simulated intestinal fluid: pH 7.5. The procedure: (§1) Reactions were terminated by the addition of TFA/H2O ([…], 10% (v/v)). […] The column was equilibrated with TFA/H20, at a flow rate of 1 mL/min. […] The absorbance was monitored at 206 nm using UV detector and peaks were collected manually prior to ESI-MS analysis.

Data set [2] concerns the target DPP IV enzyme (Homo sapiens, UniProt P27487). The data set is described as follows: Stability against DPP IV enzyme. The settings on record: 2 μM, 37° C.; for half-life: read-out: half-life (t1/2) with DPP-IV enzyme. It counts as in vitro ADME. The procedure: (§2) Different peptidomimetics (final concentration 2 μM) were incubated with either DPP IV (1:25 mU) or pooled human plasma (7.5 μL) or simulated gastric fluid (pH 1.5; composition HCl, NaCl and Pepsin) or simulated intestinal fluid (pH 7.5) or human liver microsomes, for 0, 2, 4, 6, 12 and 24 h (37° C.; 50 mM triethanolamine-HCl buffer; pH 7.8). […] Reactions were terminated by the addition of TFA/H2O ([…], 10% (v/v)). The reaction products were then applied to a Vydac C18 analytical column (4.6×250-mm) and the major degradation fragment separated from intact peptidomimetic. The column was equilibrated with TFA/H20, at a flow rate of 1 mL/min. Using 0.1% (v/v) TFA in 70% acetonitrile/H2O, the concentration of acetonitrile in the eluting solvent was raised from 0% to 28% over 10 min and from 28% to 42% over 30 min. The absorbance was monitored at 206 nm using UV detector and peaks were collected manually prior to ESI-MS analysis. Area under the curve was measured for test peptidomimetics and their metabolites and percentage degradation were calculated at each time point over a period of 24 h.

Data set [3] can be described thus: Stability in simulated gastric fluid. Format: in vitro ADME. The settings on record: 2 μM, 37° C.; for % degradation in 24 h when incubated with simulated gastric fluid: pH 1.5, 24 h; for half-life: simulated gi fluid, read-out: half-life (t1/2) in simulated gastric fluid; for half-life / half-life (t1/2) in simulated gastric fluid: pH 1.5. The procedure: as §1
Data set [4] is described as follows: Stability in human plasma. Format: in vitro ADME. The following applies: 2 μM, 37° C.; for half-life: human, plasma, read-out: half-life (t1/2) in human plasma. On the procedure:
as §2

The test system of data set [5] is RIN5F (Rat Insulinoma) cells. The data set is described as follows: In vitro glucose-dependent insulin secretion (RIN5F cell assay). It counts as cell-based. The settings on record: 16.7-mM glucose load, n = 3, mean ± S.D. In outline: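 Rat RIN5F cells were preincubated 40 min in Krebs-Ringer buffer with 1.1 mM glucose and 0.5% BSA, pH 7.4, then exposed to test peptidomimetics for 30 min at 37 °C with 16.7 mM or 0 mM glucose. Supernatant insulin was measured by rat insulin ELISA and normalised to total protein (BCA), as pg/μg.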

The nature of data set [6]: Stability in liver microsomes. Format: in vitro ADME, human. The settings on record: 2 μM, 37° C.; for half-life: human, microsomes, read-out: half-life (t1/2) in liver microsomes. On the procedure: as §1

Where a SMILES comes first, the peptide text is derived from it. [ ]: non-standard residue; d: D form. ξ: configuration not given here. ξαMeBip(2'-Et,4'-OMe) = CCc1cc(OC)ccc1-c1ccc(CC(C)(N)C(=O)O)cc1; ξBip(2'-Et-4'-OMe) = CCc1cc(OC)ccc1-c1ccc(CC(N)C(=O)O)cc1; ξαMePhe(2,6-F2) = CC(N)(Cc1c(F)cccc1F)C(=O)O; ξαMe(hhPhe) = CC(N)(CCCc1ccccc1)C(=O)O; ξαMePhe(2-F) = CC(N)(Cc1ccccc1F)C(=O)O; ξhhPhe = NC(CCCc1ccccc1)C(=O)O; ξαMeD = CC(N)(CC(=O)O)C(=O)O; ξαMeS = CC(N)(CO)C(=O)O; Aib = CC(C)(N)C(=O)O Where only a bound is given, the exact number is not on record here.

Chain of DPP IV enzyme (P27487 whole entry, species assumed, the tested form may be a part): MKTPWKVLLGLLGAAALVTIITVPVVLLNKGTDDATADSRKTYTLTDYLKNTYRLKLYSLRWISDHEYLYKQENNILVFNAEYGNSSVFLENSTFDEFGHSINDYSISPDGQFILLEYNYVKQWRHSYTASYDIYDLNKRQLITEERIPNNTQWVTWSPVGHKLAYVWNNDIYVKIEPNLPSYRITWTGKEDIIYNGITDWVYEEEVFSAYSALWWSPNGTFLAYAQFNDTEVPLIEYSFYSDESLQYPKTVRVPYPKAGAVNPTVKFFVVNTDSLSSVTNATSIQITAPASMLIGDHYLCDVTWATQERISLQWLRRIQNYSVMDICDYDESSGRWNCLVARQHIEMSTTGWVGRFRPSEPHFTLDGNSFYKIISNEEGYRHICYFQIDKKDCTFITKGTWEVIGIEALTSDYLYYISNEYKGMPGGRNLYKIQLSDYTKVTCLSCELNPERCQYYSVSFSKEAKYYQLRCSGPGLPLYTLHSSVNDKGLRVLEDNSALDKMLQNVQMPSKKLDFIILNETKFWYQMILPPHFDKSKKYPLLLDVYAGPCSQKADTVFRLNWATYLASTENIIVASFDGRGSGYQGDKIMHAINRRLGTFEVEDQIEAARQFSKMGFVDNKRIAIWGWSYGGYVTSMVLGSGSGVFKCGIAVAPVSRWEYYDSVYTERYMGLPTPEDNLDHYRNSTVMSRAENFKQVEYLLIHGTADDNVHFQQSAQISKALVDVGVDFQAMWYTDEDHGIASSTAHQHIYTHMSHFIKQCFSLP

Consider `CCc1cc(OC)ccc1-c1ccc(CC(C)(NC(=O)[C@H](CC(=O)O)NC(=O)C(C)(CO)NC(=O)[C@@H](NC(=O)C(C)(Cc2c(F)cccc2F)NC(=O)[C@@H](NC(=O)CNC(=O)[C@H](CCC(N)=O)NC(=O)[C@H](C)NC(=O)[C@H](Cc2c[nH]cn2)NC(=O)[C@@H](N)C(C)C)[C@@H](C)O)[C@@H](C)O)C(=O)NC(CCCc2ccccc2)C(N)=O)cc1` (some centres unmarked) [compound 50] (H-VHAQGT[ξαMePhe(2,6-F2)]T[ξαMeS]D[ξαMeBip(2'-Et,4'-OMe)][ξhhPhe]-NH2), for which, in data set [1], the “% degradation in 24 h when incubated with simulated intestinal fluid” value (from here on “% degradation … with simulated intestinal fluid”) is 100% and the half-life was 0.5 h. Besides, the “% degradation in 24 h when incubated with DPP-IV enzyme” value (“% degradation … with DPP-IV enzyme” below) in data set [2] was 75%. In data set [3], the “% degradation in 24 h when incubated with simulated gastric fluid” value (from here on “% degradation … with simulated gastric fluid”) is listed as 100% and the half-life was 0.5 h. For the same compound, in data set [4], the “half-life (t1/2) in human plasma” value is given as “(9) h” and the “% degradation in 24 h when incubated with human plasma” value (“% degradation … with human plasma” for short) worked out at 77%. Besides, in data set [5] (0.1 nM test compd.), the “Insulin secretion” value was determined as 12.9 ± 0.14 pg/µg/h. In addition, the “Insulin secretion” value in data set [5] (1 nM test compd.) turned out to be 15.8 ± 0.13 pg/µg/h. For the same compound, the “Insulin secretion” value in data set [5] (10 nM test compd.) came out at 29.9 ± 0.15 pg/µg/h. In data set [6], the “% degradation in 24 h when incubated with liver microsomes” value (from here on “% degradation … with liver microsomes”) came to 100% and the half-life was found to be 0.5 h.

With `CCc1cc(OC)ccc1-c1ccc(CC(C)(NC(=O)C(C)(CC(=O)O)NC(=O)[C@H](CO)NC(=O)[C@@H](NC(=O)[C@H](Cc2ccccc2)NC(=O)[C@@H](NC(=O)CNC(=O)[C@H](CCC(N)=O)NC(=O)[C@H](C)NC(=O)[C@H](Cc2c[nH]cn2)NC(=O)[C@@H](N)C(C)C)[C@@H](C)O)[C@@H](C)O)C(=O)NC(CCCc2ccccc2)C(N)=O)cc1` (some centres unmarked) [compound 58] (H-VHAQGTFTS[ξαMeD][ξαMeBip(2'-Et,4'-OMe)][ξhhPhe]-NH2), in data set [1], the “half-life (t1/2) in simulated intestinal fluid” value was “(6) h” and the “% degradation … with simulated intestinal fluid” value is 43%. In addition, in data set [2], the “% degradation … with DPP-IV enzyme” value is listed as 71% and the half-life was found to be 8 h. In addition, in data set [3], the “% degradation … with simulated gastric fluid” value is recorded as 11% and the half-life is 7 h. For the same compound, in data set [4], the “% degradation … with human plasma” value was determined as 69% and the half-life is 8 h. For the same compound, the “Insulin secretion” value in data set [5] (0.1 nM test compd.) is 16.1 ± 0.22 pg/µg/h. Further, the “Insulin secretion” value in data set [5] (1 nM test compd.) is 22.1 ± 0.26 pg/µg/h. Further, the “Insulin secretion” value in data set [5] (10 nM test compd.) amounted to 36.0 ± 0.36 pg/µg/h. Further, in data set [6], the “% degradation … with liver microsomes” value was determined as 77% and the half-life was 2 h.

For the compound `CCc1cc(OC)ccc1-c1ccc(CC(C)(NC(=O)C(C)(CC(=O)O)NC(=O)[C@H](CO)NC(=O)[C@@H](NC(=O)[C@H](Cc2ccccc2)NC(=O)[C@@H](NC(=O)CNC(=O)[C@H](CCC(=O)O)NC(=O)[C@H](C)NC(=O)[C@H](Cc2c[nH]cn2)NC(=O)[C@@H](N)C(C)C)[C@@H](C)O)[C@@H](C)O)C(=O)NC(CCCc2ccccc2)C(N)=O)cc1` (some centres unmarked) [compound 62] (H-VHAEGTFTS[ξαMeD][ξαMeBip(2'-Et,4'-OMe)][ξhhPhe]-NH2), in data set [1], the “% degradation … with simulated intestinal fluid” value is on record as 00% and the half-life was > 24 h. In addition, in data set [2], the “% degradation … with DPP-IV enzyme” value was determined as 00% and the half-life is > 24 h. In data set [3], the “% degradation … with simulated gastric fluid” value is listed as 00% and the half-life was > 24 h. In data set [4], the “% degradation … with human plasma” value is recorded as 00% and the half-life was > 24 h. Moreover, in data set [5] (0.1 nM test compd.), the “Insulin secretion” value was found to be 16.6 ± 0.41 pg/µg/h. The “Insulin secretion” value in data set [5] (1 nM test compd.) was determined as 22.9 ± 0.32 pg/µg/h. Further, in data set [5] (10 nM test compd.), the “Insulin secretion” value amounted to 36.7 ± 0.11 pg/µg/h. In data set [6], the “half-life (t1/2) in liver microsomes” value is on record as “(5) h” and the “% degradation … with liver microsomes” value is 35%.

As for `CCc1cc(OC)ccc1-c1ccc(CC(C)(NC(=O)C(C)(CC(=O)O)NC(=O)[C@H](CO)NC(=O)[C@@H](NC(=O)C(C)(Cc2ccccc2F)NC(=O)[C@@H](NC(=O)CNC(=O)[C@H](CCC(=O)O)NC(=O)[C@H](CO)NC(=O)[C@H](Cc2c[nH]cn2)NC(=O)[C@@H](N)C(C)C)[C@@H](C)O)[C@@H](C)O)C(=O)NC(CCCc2ccccc2)C(N)=O)cc1` (some centres unmarked) [compound 69] (H-VHSEGT[ξαMePhe(2-F)]TS[ξαMeD][ξαMeBip(2'-Et,4'-OMe)][ξhhPhe]-NH2), in data set [1], the “half-life (t1/2) in simulated intestinal fluid” value is “(6) h” and the “% degradation … with simulated intestinal fluid” value is given as 43%. For the same compound, in data set [2], the “% degradation … with DPP-IV enzyme” value is recorded as 76% and the half-life was found to be 9 h. In data set [3], the “half-life (t1/2) in simulated gastric fluid” value is “(8) h” and the “% degradation … with simulated gastric fluid” value is given as 14%. Besides, in data set [4], the “% degradation … with human plasma” value is 78% and the half-life came out at 8 h. For the same compound, in data set [5] (0.1 nM test compd.), the “Insulin secretion” value was 16.2 ± 0.13 pg/µg/h. For the same compound, the “Insulin secretion” value in data set [5] (1 nM test compd.) was 22.4 ± 0.19 pg/µg/h. Also, in data set [5] (10 nM test compd.), the “Insulin secretion” value was 36.2 ± 0.09 pg/µg/h. In data set [6], the “% degradation … with liver microsomes” value was 80% and the half-life was found to be 1 h.

Consider `CCc1cc(OC)ccc1-c1ccc(CC(C)(NC(=O)C(C)(CC(=O)O)NC(=O)[C@H](CO)NC(=O)[C@@H](NC(=O)C(C)(Cc2c(F)cccc2F)NC(=O)[C@@H](NC(=O)CNC(=O)[C@H](CCC(N)=O)NC(=O)C(C)(C)NC(=O)[C@H](Cc2c[nH]cn2)NC(=O)[C@@H](N)C(C)C)[C@@H](C)O)[C@@H](C)O)C(=O)NC(CCCc2ccccc2)C(N)=O)cc1` (some centres unmarked) [compound 75] (H-VH[Aib]QGT[ξαMePhe(2,6-F2)]TS[ξαMeD][ξαMeBip(2'-Et,4'-OMe)][ξhhPhe]-NH2), for which, in data set [1], the “half-life (t1/2) in simulated intestinal fluid” value is on record as “(6) h” and the “% degradation … with simulated intestinal fluid” value is 46%. In data set [2], the “% degradation … with DPP-IV enzyme” value is reported as 74% and the half-life stood at 9 h. Besides, in data set [3], the “half-life (t1/2) in simulated gastric fluid” value was “(8) h” and the “% degradation … with simulated gastric fluid” value is 12%. Moreover, in data set [4], the “% degradation … with human plasma” value came out at 75% and the half-life was 8 h. The “Insulin secretion” value in data set [5] (0.1 nM test compd.) amounted to 16.4 ± 0.12 pg/µg/h. Moreover, the “Insulin secretion” value in data set [5] (1 nM test compd.) is 22.7 ± 0.17 pg/µg/h. Moreover, the “Insulin secretion” value in data set [5] (10 nM test compd.) was found to be 36.6 ± 0.05 pg/µg/h. In data set [6], the “% degradation … with liver microsomes” value was 83% and the half-life was determined as 1 h.

Take `CCc1cc(OC)ccc1-c1ccc(CC(NC(=O)[C@H](CC(=O)O)NC(=O)[C@H](CO)NC(=O)[C@@H](NC(=O)[C@H](Cc2ccccc2)NC(=O)[C@@H](NC(=O)CNC(=O)[C@H](CCC(N)=O)NC(=O)[C@H](CO)NC(=O)[C@H](Cc2c[nH]cn2)NC(=O)[C@@H](N)C(C)C)[C@@H](C)O)[C@@H](C)O)C(=O)NC(C)(CCCc2ccccc2)C(N)=O)cc1` (some centres unmarked) [compound 81] (H-VHSQGTFTSD[ξBip(2'-Et-4'-OMe)][ξαMe(hhPhe)]-NH2): in data set [1], the “half-life (t1/2) in simulated intestinal fluid” value is recorded as “(6) h” and the “% degradation … with simulated intestinal fluid” value was 40%. For the same compound, in data set [2], the “% degradation … with DPP-IV enzyme” value is 70% and the half-life is 9 h. In addition, in data set [3], the “half-life (t1/2) in simulated gastric fluid” value is reported as “(8) h” and the “% degradation … with simulated gastric fluid” value is 14%. Moreover, in data set [4], the “% degradation … with human plasma” value was determined as 71% and the half-life stood at 8 h. In addition, the “Insulin secretion” value in data set [5] (0.1 nM test compd.) worked out at 16.8 ± 0.20 pg/µg/h. Besides, the “Insulin secretion” value in data set [5] (1 nM test compd.) is 22.7 ± 0.29 pg/µg/h. Also, in data set [5] (10 nM test compd.), the “Insulin secretion” value was 36.6 ± 0.31 pg/µg/h. Also, in data set [6], the “% degradation … with liver microsomes” value is listed as 78% and the half-life was 1 h.
